This series in a line: Solubility. Format: physicochemical. As for the experimental part: The compounds of the general formula (I), wherein X represents Cl^- (compound 1), Br^- (compound 2) are well-soluble in an isotonic solution of sodium chloride and they are administered intraperitoneally. The doses of the compounds have been calculated in mg per kg of the animal bodyweight.
To a mixture of 3 g of N^1,N^2 -dispirotripiperazinium dichloride, 1.5 g of lithium hydroxide, 1 ml of water and 10 ml of ether a solution of 5.2 g of β-bromopropionic acid chlorid in 5 ml of ether is added under vigorous stirring and at a temperature of 5° to 10° C. The reaction mass is stirred for 2 hours at the temperature of 15° C. The residue is filtered off, dissolved in 10 ml of water; the resulting aqueous solution is poured in 100 ml of methanol.

On to `O=C(CCBr)N1CC[N+]2(CC1)CC[N+]1(CCN(C(=O)CCBr)CC1)CC2` [Compound 1, N,N^3 -di-(β-bromopropionyl)-N^1,N^2 -dispirotripiperazinium dichloride], for which the “solubility in an isotonic solution of sodium chloride” value was “well-soluble”, the “solubility in organic solvents” value is reported as “substantially insoluble” and the solubility in water result was “well soluble”.

The record behind these values is US4481201A, “Pharmaceutical composition containing N,N^3 -di-(β-bromopropionyl)-N^1,N^2 -dispirotripiperazinium dichloride” (Vsesojuzny Nauchno-Issledovatelsky Khimoko-Farmasevtichesky …, priority 1981, dated 1984).
